According to patent publication US8163796B1, “Treatment of cancer by oxidation-reduction potentiation of cancerostatic dicarbonyls” (BioChemical Solutions, LLC, priority 2009, dated 2012):

Tests used:
[1] = mice, single oral dose of 200 mg; cited from earlier work
[2] = tested on: murine B cell lymphoma cell line (A20;ATCC#TIB-208); experiment: Tritiated thymidine incorporation (growth rate) of cultured lymphoma cells; format: cell-based; details: for Mean, cpm (tritiated thymidine count, growth rate): 12 hours, triplicates
Protocol: The effect of methylglyoxal concentration on the growth rate of cultured lymphoma cells is shown below. The cells used were murine B cell lymphoma cell line (A20;ATCC#TIB-208). Cells labeled A20 were untreated cells that were passed through their regular media. A20 Methylglyoxal Reversed cells had undergone 3 passages in media containing 1 mM methylglyoxal followed by 3 passages in regular media before use. A20 Methylglyoxal P6 cells had 6 passages in media containing 1 mM methylglyoxal before use. At the start of the experiment harvested cells were incubated with DNA precursor tritiated thymidine in media containing the various concentrations of methylglyoxal for 12 hours, then harvested and counted in a scintillation counter. The count data in cpm reflect the growth rate of the cells in the presence of the various methylglyoxal concentrations. Relevant data from this in vitro study are presented here.

[3] = oral administration; cited from earlier work
cancer cells = details: cited from earlier work
[4] = (IV) administration at 3.0 grams/m^2; cited from earlier work

## CC(=O)C=O [Methylglyoxal, methylglyoxal]
[1]
  Time of peak blood concentration: 4 h
[2]; 1 mM methylglyoxal in media, 3 or 6 passages
  Survival of lymphoma cells on passage in methylglyoxal: able to survive
[2]; 1.2 mM methylglyoxal, all three A20 cell groups
  Effect on growth rate: severely slowed their growth rate
[2]; 2.5 mM and 5.0 mM methylglyoxal, all three A20 cell groups
  Growth rate relative to the controls: less than 0.1 % of the controls
[2]; A20 1 mM Methylglyoxal P6 cells, 0.3 mM methylglyoxal
  Mean, cpm (tritiated thymidine count, growth rate): 36,001 cpm
[2]; A20 1 mM Methylglyoxal P6 cells, 0.6 mM methylglyoxal
  Mean, cpm (tritiated thymidine count, growth rate): 35,157 cpm
[2]; A20 1 mM Methylglyoxal P6 cells, 1.2 mM methylglyoxal
  Mean, cpm (tritiated thymidine count, growth rate): 1,470 cpm
[2]; A20 1 mM Methylglyoxal P6 cells, 2.5 mM methylglyoxal
  Mean, cpm (tritiated thymidine count, growth rate): 24 cpm
[2]; A20 1 mM Methylglyoxal P6 cells, 5.0 mM methylglyoxal
  Mean, cpm (tritiated thymidine count, growth rate): 9 cpm
[2]; A20 1 mM Methylglyoxal Reversed P3 cells, 0.3 mM methylglyoxal
  Mean, cpm (tritiated thymidine count, growth rate): 34,220 cpm
[2]; A20 1 mM Methylglyoxal Reversed P3 cells, 0.6 mM methylglyoxal
  Mean, cpm (tritiated thymidine count, growth rate): 33,927 cpm
[2]; A20 1 mM Methylglyoxal Reversed P3 cells, 1.2 mM methylglyoxal
  Mean, cpm (tritiated thymidine count, growth rate): 587 cpm
[2]; A20 1 mM Methylglyoxal Reversed P3 cells, 2.5 mM methylglyoxal
  Mean, cpm (tritiated thymidine count, growth rate): 7 cpm
[2]; A20 1 mM Methylglyoxal Reversed P3 cells, 5.0 mM methylglyoxal
  Mean, cpm (tritiated thymidine count, growth rate): 12 cpm
[2]; A20 Methylglyoxal Reversal and A20 Methylglyoxal P6 cells, passaged in 1 mM methylglyoxal
  Development of resistance to methylglyoxal: no evidence
[2]; A20 untreated cells, 0.3 mM methylglyoxal
  Mean, cpm (tritiated thymidine count, growth rate): 36,289 cpm
[2]; A20 untreated cells, 0.6 mM methylglyoxal
  Mean, cpm (tritiated thymidine count, growth rate): 30,119 cpm
[2]; A20 untreated cells, 1.2 mM methylglyoxal
  Mean, cpm (tritiated thymidine count, growth rate): 275 cpm
[2]; A20 untreated cells, 2.5 mM methylglyoxal
  Mean, cpm (tritiated thymidine count, growth rate): 6 cpm
[2]; A20 untreated cells, 5.0 mM methylglyoxal
  Mean, cpm (tritiated thymidine count, growth rate): 8 cpm
[3]
  Oral uptake: less than 5%
Cancer cells; cancer cells, normal cells were not affected
  Levels causing protein synthesis inhibition, arrested cell growth and induced apoptosis: 1 to 3 mM
Cancer cells; cultured cancer cells or mice inoculated intraperitoneally with cancer cells
  Concentration required to achieve 95-100% cell death: ~3 mM

## CCCCS(=N)(=O)CCC(N)C(=O)O (stereo not drawn) [buthioinine sulfoximine, buthionine sulfoximine]
[4]
  Deleterious effects: no deleterious effects
